Results: patent US20240158446A1, “CYCLIC COMPOUND HAVING SELECTIVE INHIBITORY ACTION ON KRAS OVER HRAS AND NRAS” (CHUGAI SEIYAKU KABUSHIKI KAISHA, priority 2021, published 2024)

What was measured:
[1] = biological target: GDP-bound NRAS wild-type protein (Homo sapiens, UniProt P01111); assay: Binding to NRAS by surface plasmon resonance (SPR), Single Cycle Kinetics; settings: for NRAS/KRAS (ratio of KD value for NRAS to KD value for KRAS) / NRAS/KRAS (ratio of KD value with respect to NRAS to KD value with respect to KRAS): SPR, GDP-bound NRAS wild-type protein vs GDP-bound KRAS wild-type protein; for NRAS/KRAS (ratio of KD value with respect to GDP-bound NRAS wild-type protein to KD value with respect to KRAS): SPR KD ratio NRAS/KRAS, class symbols
Sequence of GDP-bound NRAS wild-type protein (P01111 whole entry): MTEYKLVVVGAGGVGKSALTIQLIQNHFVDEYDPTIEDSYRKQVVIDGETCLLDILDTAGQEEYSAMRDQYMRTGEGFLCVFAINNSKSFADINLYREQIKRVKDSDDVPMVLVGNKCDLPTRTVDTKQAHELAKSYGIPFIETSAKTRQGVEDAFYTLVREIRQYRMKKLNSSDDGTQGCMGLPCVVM

[2] = biological target: GDP-bound HRAS wild-type protein (Homo sapiens, UniProt P01112); assay: Binding to HRAS by surface plasmon resonance (SPR), Single Cycle Kinetics; settings: for HRAS/KRAS (ratio of KD value for HRAS to KD value for KRAS) / HRAS/KRAS (ratio of KD value with respect to HRAS to KD value with respect to KRAS): SPR, GDP-bound HRAS wild-type protein vs GDP-bound KRAS wild-type protein; for HRAS/KRAS (ratio of KD value with respect to GDP-bound HRAS wild-type protein to KD value with respect to KRAS): SPR KD ratio HRAS/KRAS, class symbols
Sequence of GDP-bound HRAS wild-type protein (P01112 whole entry): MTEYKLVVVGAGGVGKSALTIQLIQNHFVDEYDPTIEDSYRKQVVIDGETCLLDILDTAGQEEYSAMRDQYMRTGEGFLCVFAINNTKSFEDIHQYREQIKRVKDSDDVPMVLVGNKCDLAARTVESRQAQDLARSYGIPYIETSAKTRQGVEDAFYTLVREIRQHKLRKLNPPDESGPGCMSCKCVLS

For `CCO[C@@H]1C[C@H]2C(=O)NC3(CCC3)C(=O)N(C)[C@@H](C(CC)CC)C(=O)N(C)[C@H](C)CC(=O)N(C)[C@@H](CC(C)C)C(=O)N[C@@H]([C@@H](C)CC)C(=O)N(C)CC(=O)N(C)[C@H]3C/C=C\CCN(C3=O)[C@@H](Cc3ccc(F)cc3)C(=O)N(C)CC(=O)N[C@@H](CCc3cc(F)c(C(F)(F)F)c(F)c3)C(=O)N2C1` [PP1525], the “NRAS/KRAS (ratio of KD value for NRAS to KD value for KRAS)” value ([1]; KD ratio class) was “A (a compound having 10 or more and less than 20 is denoted as A)” and the “HRAS/KRAS (ratio of KD value for HRAS to KD value for KRAS)” value ([2]; KD ratio class) was “A (a compound having 10 or more and less than 20 is denoted as A)”.
For `CC[C@H](C)[C@@H]1NC(=O)[C@H](COC)N(C)C(=O)C[C@@H](C(=O)N2CCOCC2)N(C)C(=O)[C@H](C2CCCC2)N(C)C(=O)C2(CCC2)NC(=O)[C@@H]2CC(F)(F)CN2C(=O)[C@H](CCc2cc(F)c(C(F)(F)F)c(F)c2)NC(=O)CN(C)C(=O)[C@H](Cc2ccc(C(F)(F)F)cc2)N2CCCCC[C@@H](C2=O)N(C)C(=O)CN(C)C1=O` [PP0834], the “NRAS/KRAS (ratio of KD value for NRAS to KD value for KRAS)” value [1] was “A (a compound having 10 or more and less than 20 is denoted as A)” and the “HRAS/KRAS (ratio of KD value for HRAS to KD value for KRAS)” value [2] was “B (a compound having 3 or more and less than 10 is denoted as B)”.
In the case of `CCC[C@H]1C(=O)N[C@@H]([C@@H](C)CC)C(=O)N(C)CC(=O)N(C)[C@H]2C/C=C\CCN(C2=O)[C@@H](Cc2ccc(C)cc2)C(=O)N(C)CC(=O)N[C@@H](CCc2ccc(Cl)c(Cl)c2)C(=O)N2C[C@H](OCC)C[C@H]2C(=O)NC2(CC(C)(C)C2)C(=O)N(C)[C@@H](CC2CC2)C(=O)N(C)[C@H](C(=O)N(C)C)CC(=O)N1C` [PP2799], the “NRAS/KRAS (ratio of KD value with respect to GDP-bound NRAS wild-type protein to KD value with respect to KRAS)” value [1] is reported as “A (a compound having 10 or more and less than 20 is denoted as A)” and the “HRAS/KRAS (ratio of KD value with respect to GDP-bound HRAS wild-type protein to KD value with respect to KRAS)” value [2] is reported as “A (a compound having 10 or more and less than 20 is denoted as A)”.
For `CCO[C@@H]1C[C@H]2C(=O)NC3(CCC3)C(=O)N(C)[C@@H](C3CCCC3)C(=O)N(C)[C@H](C(=O)N(C)C)CC(=O)N(C)[C@@H](CC3CCCCC3)C(=O)N[C@@H]([C@@H](C)CC)C(=O)N(C)CC(=O)N(C)[C@H]3CCCCCN(C3=O)[C@@H](Cc3ccc(C(F)(F)F)cc3)C(=O)N(C)CC(=O)N[C@@H](CCc3cc(F)c(C(F)(F)F)c(F)c3)C(=O)N2C1` [PP0671], the “NRAS/KRAS (ratio of KD value with respect to NRAS to KD value with respect to KRAS)” value [1] was “B (a compound having 3 or more and less than 10 is denoted as B)” and the “HRAS/KRAS (ratio of KD value with respect to HRAS to KD value with respect to KRAS)” value [2] was “B (a compound having 3 or more and less than 10 is denoted as B)”.
For `CC[C@H](C)[C@@H]1NC(=O)[C@H](CC(C)C)N(C)C(=O)C[C@@H](C(=O)N(C)C)N(C)C(=O)[C@H](C2CCCC2)N(C)C(=O)C2(CCCC2)NC(=O)[C@@H]2CCCN2C(=O)[C@H](CCc2ccc(C(F)(F)F)c(Cl)c2)NC(=O)CN(C)C(=O)[C@H](Cc2ccc(C)cc2)N2CC=CCOC[C@H](C2=O)N(C)C(=O)CN(C)C1=O` [PP0629], the “NRAS/KRAS (ratio of KD value with respect to NRAS to KD value with respect to KRAS)” value [1] was “B (a compound having 3 or more and less than 10 is denoted as B)” and the “HRAS/KRAS (ratio of KD value with respect to HRAS to KD value with respect to KRAS)” value [2] was “C (A compound having a KD ratio of 0.1 or more and less than 3 is denoted as C)”.
With `CCO[C@@H]1C[C@H]2C(=O)NC3(CCC3)C(=O)N(C)[C@@H](C3CCCC3)C(=O)N(C)[C@H](C(=O)N3CCOCC3)CC(=O)N(C)[C@@H](CC(C)C)C(=O)N[C@@H]([C@@H](C)CC)C(=O)N3CC[C@H]3C(=O)N(C)[C@H]3C[C@@H](C)CCN(C3=O)[C@@H](Cc3ccc(C(F)(F)F)cc3)C(=O)N(C)CC(=O)N[C@@H](CCc3cc(F)c(C(F)(F)F)c(F)c3)C(=O)N2C1` [PP1026] the “NRAS/KRAS (ratio of KD value for NRAS to KD value for KRAS)” value [1] was “B (a compound having 3 or more and less than 10 is denoted as B)” and the “HRAS/KRAS (ratio of KD value for HRAS to KD value for KRAS)” value [2] was “B (a compound having 3 or more and less than 10 is denoted as B)”.
With `CCO[C@@H]1C[C@H]2C(=O)NC3(CC(C)(C)C3)C(=O)N(C)[C@@H](C3CCCC3)C(=O)N(C)[C@H](C(=O)N(C)C)CC(=O)N(C)[C@@H](CC(C)C)C(=O)N[C@@H]([C@@H](C)CC)C(=O)N(C)CC(=O)N(C)[C@H]3C/C=C\CCN(C3=O)[C@@H](Cc3ccc(C(C)C)cc3)C(=O)N(C)CC(=O)N[C@@H](CCc3ccc(C(F)(F)F)c(OC)c3)C(=O)N2C1` [PP2692] the “NRAS/KRAS (ratio of KD value with respect to GDP-bound NRAS wild-type protein to KD value with respect to KRAS)” value [1] was “A (a compound having 10 or more and less than 20 is denoted as A)” and the “HRAS/KRAS (ratio of KD value with respect to GDP-bound HRAS wild-type protein to KD value with respect to KRAS)” value [2] was “A (a compound having 10 or more and less than 20 is denoted as A)”.
In the case of `CCC[C@H]1C(=O)N[C@@H]([C@@H](C)CC)C(=O)N(CCC)CC(=O)N(C)[C@H]2C/C=C\CCN(C2=O)[C@@H](Cc2ccc(C)cc2)C(=O)N(C)CC(=O)N[C@@H](CCc2ccc(C(F)(F)F)c(OC)c2)C(=O)N2C[C@H](OCC)C[C@H]2C(=O)NC2(CC(C)(C)C2)C(=O)N(C)[C@@H](C2CCCC2)C(=O)N(C)[C@H](C(=O)N(C)C)CC(=O)N1C` [PP2054], the “NRAS/KRAS (ratio of KD value for NRAS to KD value for KRAS)” value [1] is reported as “A (a compound having 10 or more and less than 20 is denoted as A)” and the “HRAS/KRAS (ratio of KD value for HRAS to KD value for KRAS)” value [2] is reported as “A (a compound having 10 or more and less than 20 is denoted as A)”.
